Experiments:
[1] = system: ZR-75-1 (breast cancer); assay: In vitro cytotoxicity of camptothecin analogues (CellTiter-Glo); format: cell-based; details: Homo sapiens, ZR-75-1, 120 h, read-out: pIC50 ZR-75 (converted)
Method: (§1) In vitro potency was assessed on multiple cancer cell lines: SK-BR-3 (breast cancer), SKOV-3 (ovarian cancer), Calu-3 (lung cancer), ZR-75-1 (breast cancer) and MDA-MB-468 (breast cancer). Serial dilutions of camptothecin analogues were prepared in RPMI 1640+10% FBS, and 20 μL of each dilution was added to 384-well plates. Cells cultured in log-phase growth were detached by brief incubation in 0.05% Trypsin and resuspended in respective culturing media at 20,000 cells/mL (with the exception of ZR-75 cells, which were resuspended at 10,000 cells/mL). 50 μL of cell suspension was then added to the plates containing test articles. Cells were incubated with test articles for 4 d at 37° C. (with the exception of ZR-75 cells, which were incubated for 5 d). Growth inhibition was assessed by CellTiter-Glo® (Promega Corporation, Madison, WI) and luminescence was measured on a plate reader. IC50 values were determined by GraphPad Prism (GraphPad Software, San Diego CA).

[2] = system: SKOV-3 (ovarian cancer); assay: as above; format: cell-based; details: Homo sapiens, SK-OV-3, 96 h, read-out: pIC50 SKOV-3 (converted)
Method: as §1

[3] = system: SK-BR-3 (breast cancer); assay: as above; format: cell-based; details: Homo sapiens, SK-BR-3, 96 h, read-out: pIC50 SKBR-3 (converted)
Method: as §1

[4] = system: MDA-MB-468 (breast cancer); assay: as above; format: cell-based; details: Homo sapiens, MDA-MB-468, 96 h, read-out: pIC50 MDA-MB-468 (converted)
Method: as §1

[5] = system: Calu-3 (lung cancer); assay: as above; format: cell-based; details: Homo sapiens, Calu-3, 96 h, read-out: pIC50 Calu-3 (converted)
Method: as §1

[6] = system: hepatocellular carcinoma; details: adults with HCC; cited from earlier work

Compound	IC50 [1] [nM]	IC50 [2] [nM]	IC50 [3] [nM]	IC50 [4] [nM]	IC50 [5] [nM]	efficacy in clinical trials, in words [6]	safety in clinical trials, in words [6]
CC[C@@]1(O)C(=O)OCc2c1cc1n(c2=O)Cc2c-1nc1cc(F)c(C)cc1c2CN1CCN(c2ccc(N)cc2)CC1 [Compound 108, (S)-11-((4-(4-aminophenyl)piperazin-1-yl)methyl)-4-ethyl-8-fluoro-4-hydroxy-9-methyl-1,12-dihydro-14H-pyrano[3′,4′:6,7]indolizino[1,2-b]quinoline-3,14(4H)-dione]	18.6	55	29.5	47.9	40.7		
CC[C@@]1(O)C(=O)OCc2c1cc1n(c2=O)Cc2c-1nc1cc(F)c(C)cc1c2CN1CCO[C@@H](CO)C1 [Compound 113, (S)-4-ethyl-8-fluoro-4-hydroxy-11-(((R)-2-(hydroxymethyl)morpholino)methyl)-9-methyl-1,12-dihydro-14H-pyrano[3′,4′:6,7]indolizino[1,2-b]quinoline-3,14(4H)-dione]	2.19	4.27	1.95	3.39	3.02		
CC[C@@]1(O)C(=O)OCc2c1cc1n(c2=O)Cc2c-1nc1cc(F)c(C)cc1c2CN1CCSCC1CO (stereo partly drawn) [Compound 114, (4S)-4-ethyl-8-fluoro-4-hydroxy-11-((3-(hydroxymethyl)thiomorpholino)methyl)-9-methyl-1,12-dihydro-14H-pyrano[3′,4′:6,7]indolizino[1,2-b]quinoline-3,14(4H)-dione]		0.178	0.107	0.417	0.0933		
CC[C@@]1(O)C(=O)OCc2c1cc1n(c2=O)Cc2c-1nc1cc(F)c(C)cc1c2CN1C2CCC1(CO)CC2 [Compound 121]		0.195	0.148	0.269	0.145		
CC[C@@]1(O)C(=O)OCc2c1cc1n(c2=O)Cc2c-1nc1cc(F)c(C)cc1c2CNS(C)(=O)=O [Compound 122, (S)-N-((4-ethyl-8-fluoro-4-hydroxy-9-methyl-3,14-dioxo-3,4,12,14-tetrahydro-1H-pyrano[3′,4′:6,7]indolizino[1,2-b]quinolin-11-yl)methyl)methanesulfonamide]	1.29	9.12	1.12	1.1	3.72		
CC[C@@]1(O)C(=O)OCc2c1cc1n(c2=O)Cc2c-1nc1cc(F)c(C)cc1c2CNS(=O)(=O)c1ccccc1 [Compound 125, (S)-N-((4-ethyl-8-fluoro-4-hydroxy-9-methyl-3,14-dioxo-3,4,12,14-tetrahydro-1H-pyrano[3′,4′:6,7]indolizino[1,2-b]quinolin-11-yl)methyl)benzenesulfonamide]	1.32	7.08	1.32	3.8	2.82		
CC[C@@]1(O)C(=O)OCc2c1cc1n(c2=O)Cc2c-1nc1cc(F)c(C)cc1c2CNS(=O)(=O)c1ccc(N)cc1 [Compound 127, (S)-4-amino-N-((4-ethyl-8-fluoro-4-hydroxy-9-methyl-3,14-dioxo-3,4,12,14-tetrahydro-1H-pyrano[3′,4′:6,7]indolizino[1,2-b]quinolin-11-yl)methyl)benzenesulfonamide]	5.25	14.5	3.31	3.8	9.33		
CC[C@@]1(O)C(=O)OCc2c1cc1n(c2=O)Cc2c-1nc1cc(F)c(OC)cc1c2CNS(=O)(=O)c1ccc(N)cc1 [Compound 128, (S)-4-amino-N-((4-ethyl-8-fluoro-4-hydroxy-9-methoxy-3,14-dioxo-3,4,12,14-tetrahydro-1H-pyrano[3′,4′:6,7]indolizino[1,2-b]quinolin-11-yl)methyl)benzenesulfonamide]	4.27	18.2	5.25	8.32			
CC[C@@]1(O)C(=O)OCc2c1cc1n(c2=O)Cc2c-1nc1cc(F)c(C)cc1c2CNS(N)(=O)=O [Compound 131, (S)-((4-ethyl-8-fluoro-4-hydroxy-9-methyl-3,14-dioxo-3,4,12,14-tetrahydro-1H-pyrano[3′,4′:6,7]indolizino[1,2-b]quinolin-11-yl)methyl)sulfamide]	0.955		1.05	9.12	9.12		
CC[C@@]1(O)C(=O)OCc2c1cc1n(c2=O)Cc2c-1nc1cc(F)c(OC)cc1c2CNC(=O)NCc1ccc(N)cc1 [Compound 135, (S)-1-(4-aminobenzyl)-3-((4-ethyl-8-fluoro-4-hydroxy-9-methoxy-3,14-dioxo-3,4,12,14-tetrahydro-1H-pyrano[3′,4′:6,7]indolizino[1,2-b]quinolin-11-yl)methyl)urea]	13.2		12.3	10.7			
CC[C@@]1(O)C(=O)OCc2c1cc1n(c2=O)Cc2c-1nc1cc(F)c(N)cc1c2CN=[N+]=[N-] [Compound 152, (S)-9-amino-11-(azidomethyl)-4-ethyl-8-fluoro-4-hydroxy-1,12-dihydro-14H-pyrano[3′,4′:6,7]indolizino[1,2-b]quinoline-3,14(4H)-dione]		2.88	3.24	5.01	1.48		
codrituzumab: "Codrituzumab, also known as GC33 or RG-7686"; antibody targeting GPC3 tested clinically "as a bivalent IgG"; "reference antibody codrituzumab"						limited efficacy	good safety profile
